How the values were obtained:
[1] = tested on: animals with scopolamine-induced memory impairment; experiment: Morris Water Maze (MWM) test with scopolamine-induced memory impairment; format: in vivo, Wistar rats; details: scopolamine 0.3 mg/kg i.p.; day 4 of acquisition
From the text: The first part of the study involved acute testing of cG-2-AllylP in the Morris Water Maze Memory (MWM) model. The MWM test is one of the most frequently used tests for assessing spatial memory in rats and is well recognized to accurately predict effects of disease and treatment on spatial memory generally. Therefore, the MWM test reflects effects of disease and treatment in human subjects. The standard procedure for MWM was followed. We used a circular swimming pool (80 cm depth×150 cm diameter) filled with opaque water, with the temperature maintained at 20° C. […] On days 1-4 of the experiment rats underwent memory acquisition trials with 6 trials (60 seconds each) in each day of testing (habituation phase). Latency to reach the platform was recorded and the daily reduction of average latency was used to measure the capability to learn where the hidden platform was. […] Experimental groups are detailed in the Table 4 below. On […], the probe MWM test was performed with the platform removed. There were 6 trials, each of maximum duration of 60s, at least 3 min rest between trials). […] Data was collected and analysed using Any-maze (v4.2) software. The data generated from behavioural tests was analysed using one-way ANOVA for determining the difference between the aged-groups. […]

[2] = tested on: cerebellar explants; experiment: Cerebellar explants, glutamate/3-nitropropionic acid neurotoxicity; format: cell-based, Wistar rats
Experimental: Cover slips were placed into a large Petri dish and washed in 70% alcohol for 5 minutes, then washed with Millipore H2O. The cover slips were air dried, and coated with Poly-D-Lysine (1 mg/ml stock solution in PBS, 90-100 μl) for 2 hours at 34° C.
Postnatal day 8 Wistar rats were used for the study. The rats were sacrificed and placed in ice for 1 minute, decapitated and the cerebellum removed and placed on ice. Cerebellum tissue was placed in 1 ml of 0.65% glucose-supplemented PBS (10 μl 65% stock D (+)glucose/1 ml PBS) in a large Petri dish, chopped up into smaller sections and triturated with a 1 ml insulin syringe via a 23 G (0.4 mm) needle, and then squirted back into the glucose solution in the large Petri dish. The tissue was sieved through (125 μm pore size gauze) and centrifuged (2 minutes at 60 g) twice to exchange the medium into serum-free BSA-supplemented START V medium (Biochrom, Germany). The second centrifugation step was done with 1 ml of START V medium. The microexplants were reconstituted into 500 μl of START V medium and put on ice.
Two hours after PDL-coating, the slides were washed with Millipore H2O and air dried. Each slide was placed into a small Petri dish (diameter: 35 mm) and 40 μl of START V/cell suspension was added. The tissue was incubated for 2 hours at 34° C. (settlement period). START V-medium (1 ml) was then added to the Petri dish and cultivated at 34° C. in the presence of 5% CO2 in air at 100% humidity for 48 hours.
For the study, certain explant cultures were exposed to vehicle (PBS) only. In the first study (Study 1) 10 μl of toxin 1 (L-glutamate—100 mM in Millipore water; final concentration; 1 mM) and 10 μl of toxin 2 (3-nitropropionic acid—50 mM—pH 7—in Millipore water, final concentration: 0.5 mM) was applied simultaneously with the drug to be tested ([…]). In each case, the drugs were left in contact with the explants for the duration of the study.
After explants were exposed to drugs for the study period, cells were then rinsed in PBS and then fixed in increasing concentrations of paraformaldehyde (500 μl of 0.4% PFA was applied; then 1.2% PFA; then 3% PFA and finally 4% PFA (each fixation step: 2-3 minutes). Finally, the microexplants were rinsed in PBS.
Neurons in the explants were then evaluated for morphology (presence of neurites) and counted as live cells per microscopic field. Four fields displaying highest cell density were counted per cover slip and the data presented as mean±standard error of the mean (SEM); n=4 each. Statistical significance was evaluated by using the non-paired Student's t-test.

## CN1[C@@H]2C[C@@H](OC(=O)[C@H](CO)c3ccccc3)C[C@H]1[C@@H]1O[C@@H]12 [scopolamine, reference compound]
[1]
  time to platform: approximately 208 % of control

## N[C@@H](CCC(=O)O)C(=O)O [Glutamate, L-glutamate, reference compound]
[2]; glutamate 1 mM vs vehicle-treated controls
  loss of cerebellar neurons having neurites: ~85%

## C[C@@]12CCCN1C(=O)C1(CCCC1)NC2=O [Cyclic cyclopentyl-G-2MeP, (8aS)-Methyl-spiro[cyclopentane-1,3(4H)-tetrahydropyrrolo[1,2-a]pyrazine]-1,4(2H)-dione]
[2]; administered simultaneously with glutamate
  numbers of cells having neurites: significantly increased the number of cells having neurites
[2]; low doses (cG-2-AllylP: 100 pm to 10 nm)
  glutamate-induced neurotoxicity: significant decrease in glutamate-induced neurotoxicity

From US11197856B2, “Bicyclic compounds and methods for their use in treating autism” (priority 2013, dated 2021)
